We go through 66 compounds from patent US10035801B2, “Pyrazolo compounds and uses thereof” (CONSTELLATION PHARMACEUTICALS, INC., priority 2013, dated 2018).

SMILES strings stand for the structures. Where two headings read alike, the source gives them in different places.

In this assay the target is T1, KDM5A (Homo sapiens, UniProt P29375).
T1 construct: Full length KDM5A enzyme was expressed and purified inhouse; made in house
The assay is described as follows: KDM5 enzyme assay, KDM5A HTRF (Example 463). The class given is biochemical. On the technique in general: In TR-FRET formats the signal depends on donor and acceptor labels being close together.

Where [1] appears, read: compounds of Examples 1-432, read-out: Example 463 Assay KDM5A HTRF IC50.

T1 sequence (P29375 whole entry): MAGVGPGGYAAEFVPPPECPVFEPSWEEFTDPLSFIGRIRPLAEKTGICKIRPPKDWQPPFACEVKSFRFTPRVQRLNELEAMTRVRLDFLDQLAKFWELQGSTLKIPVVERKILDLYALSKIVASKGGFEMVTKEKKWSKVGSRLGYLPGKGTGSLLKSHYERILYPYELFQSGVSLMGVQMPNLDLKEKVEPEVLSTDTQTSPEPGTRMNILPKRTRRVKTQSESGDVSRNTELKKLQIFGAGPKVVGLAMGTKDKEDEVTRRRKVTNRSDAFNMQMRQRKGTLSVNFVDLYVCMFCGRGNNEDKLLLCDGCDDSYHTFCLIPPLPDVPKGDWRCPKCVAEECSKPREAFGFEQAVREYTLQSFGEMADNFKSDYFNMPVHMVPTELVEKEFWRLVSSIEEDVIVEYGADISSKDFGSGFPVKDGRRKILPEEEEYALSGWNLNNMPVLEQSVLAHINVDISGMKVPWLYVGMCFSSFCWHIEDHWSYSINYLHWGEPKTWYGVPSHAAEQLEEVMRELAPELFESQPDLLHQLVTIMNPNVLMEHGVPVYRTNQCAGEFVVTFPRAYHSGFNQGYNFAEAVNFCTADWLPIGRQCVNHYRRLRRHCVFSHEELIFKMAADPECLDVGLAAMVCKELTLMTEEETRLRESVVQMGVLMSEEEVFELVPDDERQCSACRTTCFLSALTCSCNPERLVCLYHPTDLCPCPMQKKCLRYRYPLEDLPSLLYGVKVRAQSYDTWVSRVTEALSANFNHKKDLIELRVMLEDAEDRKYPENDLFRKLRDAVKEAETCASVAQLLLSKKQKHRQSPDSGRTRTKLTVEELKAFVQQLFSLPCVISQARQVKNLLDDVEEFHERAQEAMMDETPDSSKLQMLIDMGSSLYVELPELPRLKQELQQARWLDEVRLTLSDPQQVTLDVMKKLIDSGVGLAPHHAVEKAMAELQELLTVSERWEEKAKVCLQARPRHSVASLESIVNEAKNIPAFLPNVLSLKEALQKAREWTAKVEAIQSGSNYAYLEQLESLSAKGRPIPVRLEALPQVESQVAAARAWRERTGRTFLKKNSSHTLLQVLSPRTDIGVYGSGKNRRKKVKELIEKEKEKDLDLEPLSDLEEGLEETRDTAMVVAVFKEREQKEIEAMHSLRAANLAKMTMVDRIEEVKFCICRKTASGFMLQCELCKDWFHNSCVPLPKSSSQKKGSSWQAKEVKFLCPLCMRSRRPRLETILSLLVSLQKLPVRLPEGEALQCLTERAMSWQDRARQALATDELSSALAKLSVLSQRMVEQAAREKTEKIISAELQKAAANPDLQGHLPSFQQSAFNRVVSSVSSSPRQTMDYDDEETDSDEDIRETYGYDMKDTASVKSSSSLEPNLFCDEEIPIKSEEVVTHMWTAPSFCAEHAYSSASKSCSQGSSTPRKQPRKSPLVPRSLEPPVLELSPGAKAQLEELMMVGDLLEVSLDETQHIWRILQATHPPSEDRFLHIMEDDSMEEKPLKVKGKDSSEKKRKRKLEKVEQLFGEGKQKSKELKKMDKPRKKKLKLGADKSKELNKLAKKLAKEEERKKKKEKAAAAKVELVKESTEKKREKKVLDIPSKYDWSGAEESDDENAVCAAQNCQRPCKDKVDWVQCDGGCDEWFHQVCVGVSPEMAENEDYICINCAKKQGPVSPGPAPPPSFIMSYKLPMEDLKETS
Experimental: Full length KDM5A enzyme was expressed and purified inhouse. Biotin-H3K4me3 peptide was purchased from New England Biolabs. HTRF reagents (containing Eu-labeled H3K4me1-2 antibody, and streptavidin-XL665) were purchased from Cis-Bio International. Plates were read on an Envision multi-label plate reader Perkin Elmer).
The HTRF assay mixture contained 2 nM full length KDM5A enzyme, 100 nM H3K4Me3 peptide substrate, 1 uM 2-OG, 100 uM Fe^2+, 500 uM ascorbate. 50 mM HEPES pH 7.0 buffer, 0.01% Triton-X 100, 2 mM DTT. […] The plates were incubated at room temperature for 60 minutes and then read in the Envision plate reader.

Regarding `COc1cc(-c2[nH]c3c(C#N)cnn3c(=O)c2C(C)C)ccn1` [Example 277], the IC50 is 32 nM.

As to `Cc1nc(-c2ccccc2)sc1-c1[nH]c2c(C#N)cnn2c(=O)c1C(C)C` [Example 278], under setting [1], the IC50 was determined as 76 nM.

As to `CC(C)c1c(-c2cc(N)cc(C#N)c2)[nH]c2c(C#N)cnn2c1=O` [Example 279], under setting [1], the IC50 is 24 nM.

For `CC(C)c1c(-c2cnn(C3CCOC3)c2)[nH]c2c(C#N)cnn2c1=O` (stereo not drawn) [Example 280], under setting [1], the IC50 came to 15 nM.

Turning to `CCNC(=O)c1cccc(-c2[nH]c3c(C#N)cnn3c(=O)c2C(C)C)c1` [Example 281], the IC50 under setting [1] came to 32 nM.

For `CC(C)c1c(-c2cccc(CC(N)=O)c2)[nH]c2c(C#N)cnn2c1=O` [Example 282], the IC50 under setting [1] was 8 nM.

As to `CC(C)c1c(-c2ccc(-c3ccccc3)nc2)[nH]c2c(C#N)cnn2c1=O` [Example 283], the IC50 under setting [1] came to 37 nM.

Turning to `CC(C)c1c(-c2cnn(C3CCCOC3)c2)[nH]c2c(C#N)cnn2c1=O` (stereo not drawn) [Example 285], the IC50 under setting [1] was 23 nM.

With `COCC(C)n1cc(-c2[nH]c3c(C#N)cnn3c(=O)c2C(C)C)cn1` (stereo not drawn) [Example 286], under setting [1], the IC50 was found to be 30 nM.

As to `CCOCCn1cc(-c2[nH]c3c(C#N)cnn3c(=O)c2C(C)C)cn1` [Example 287], the half-inhibitory concentration (IC50) under setting [1] was 22 nM.

For the compound `CC(=O)N1CC=C(c2[nH]c3c(C#N)cnn3c(=O)c2C(C)C)C1` [Example 288], the IC50 under setting [1] is 12 nM.

Take `CC(=O)N1CCC=C(c2[nH]c3c(C#N)cnn3c(=O)c2C(C)C)C1` [Example 289]: under setting [1], the IC50 was found to be 35 nM.

On to `CCC(=O)N1CCC=C(c2[nH]c3c(C#N)cnn3c(=O)c2C(C)C)C1` [Example 290], for which, under setting [1], the IC50 worked out at 39 nM.

On to `CCC(=O)N1CC=C(c2[nH]c3c(C#N)cnn3c(=O)c2C(C)C)C1` [Example 291], for which the IC50 under setting [1] worked out at 55 nM.

For the compound `CC(C)c1c(C2=CCNC2)[nH]c2c(C#N)cnn2c1=O` [Example 293], the IC50 under setting [1] amounted to 19 nM.

As for `CC(C)c1c(C2=CCCNC2)[nH]c2c(C#N)cnn2c1=O` [Example 294], the IC50 under setting [1] came to 62 nM.

Regarding `CC(C)c1c(C2=CCCN(C)C2)[nH]c2c(C#N)cnn2c1=O` [Example 295], the concentration for half-maximal inhibition (IC50) under setting [1] came out at 39 nM.

Consider `C=CC(=O)N1CCC=C(c2[nH]c3c(C#N)cnn3c(=O)c2C(C)C)C1` [Example 296], for which the concentration for half-maximal inhibition (IC50) under setting [1] is 47 nM.

With `C=CC(=O)N1CC=C(c2[nH]c3c(C#N)cnn3c(=O)c2C(C)C)C1` [Example 297], the IC50 under setting [1] amounted to 28 nM.

As for `Cc1cc(-c2[nH]c3c(C#N)cnn3c(=O)c2C(C)C)cc(C)c1Cl` [Example 298], the IC50 under setting [1] was 24 nM.

`Cc1cc(-c2[nH]c3c(C#N)cnn3c(=O)c2C(C)C)ccc1C#N` [Example 299]: under setting [1], the IC50 came to 25 nM.

With `CC(C)c1c(-c2ccc3c(c2)CCC3=O)[nH]c2c(C#N)cnn2c1=O` [Example 300], under setting [1], the IC50 amounted to 18 nM.

As to `CC(C)c1c(-c2ccc(C(F)(F)F)c(C(F)(F)F)c2)[nH]c2c(C#N)cnn2c1=O` [Example 301], the IC50 under setting [1] was found to be 170 nM.

For the compound `Cc1cc(-c2[nH]c3c(C#N)cnn3c(=O)c2C(C)C)ccc1C(F)(F)F` [Example 302], the IC50 under setting [1] was 52 nM.

Consider `CC(C)c1c(-c2cnn(Cc3cccc4ccsc34)c2)[nH]c2c(C#N)cnn2c1=O` [Example 303], for which, under setting [1], the IC50 was found to be 15 nM.

Take `CC(C)c1c(-c2ccc(F)c(C(=O)NC3CCCCC3)c2)[nH]c2c(C#N)cnn2c1=O` [Example 304]: under setting [1], the IC50 was 52 nM.

Regarding `CC(C)c1c(-c2ccc(N3CCOCC3)cc2)[nH]c2c(C#N)cnn2c1=O` [Example 305], under setting [1], the IC50 is 47 nM.

Consider `CC(C)c1c(-c2ccc(N3CCN(C(=O)OC(C)(C)C)CC3)cc2)[nH]c2c(C#N)cnn2c1=O` [Example 306], for which, under setting [1], the half-inhibitory concentration (IC50) came out at 200 nM.

Take `Cc1cc(Cl)cc(-c2[nH]c3c(C#N)cnn3c(=O)c2C(C)C)c1` [Example 307]: the IC50 under setting [1] was 25 nM.

In the case of `CC(C)c1c(-c2cccc(S(C)(=O)=O)c2)[nH]c2c(C#N)cnn2c1=O` [Example 308], under setting [1], the IC50 was found to be 17 nM.

For `CC(C)c1c(-c2ccc(NS(C)(=O)=O)cc2)[nH]c2c(C#N)cnn2c1=O` [Example 309], the concentration for half-maximal inhibition (IC50) under setting [1] turned out to be 37 nM.

For `CC(C)c1c(-c2ccc(CN3CCOCC3)cc2)[nH]c2c(C#N)cnn2c1=O` [Example 310], the IC50 under setting [1] was 19 nM.

Take `CC(C)c1c(-c2cccc(N3CCOCC3)c2)[nH]c2c(C#N)cnn2c1=O` [Example 311]: under setting [1], the IC50 is 28 nM.

Turning to `CC(C)c1c(-c2ccc(Oc3ccccc3)cc2)[nH]c2c(C#N)cnn2c1=O` [Example 312], the half-inhibitory concentration (IC50) under setting [1] was 28 nM.

As for `C=CC(=O)NCCn1cc(-c2[nH]c3c(C#N)cnn3c(=O)c2C(C)C)cn1` [Example 313], the IC50 under setting [1] worked out at 18 nM.

Consider `CC(C)c1c(-c2cnn(CCN)c2)[nH]c2c(C#N)cnn2c1=O` [Example 314], for which the IC50 under setting [1] came out at 5.2 nM.

`Cc1ccc(-c2[nH]c3c(C#N)cnn3c(=O)c2C(C)C)cc1C1CC1` [Example 315]: under setting [1], the IC50 is 24 nM.

As to `CCOc1cccc(-c2[nH]c3c(C#N)cnn3c(=O)c2C(C)C)c1` [Example 316], under setting [1], the IC50 was found to be 34 nM.

As to `CC(C)c1c(-c2cccc(CO)c2)[nH]c2c(C#N)cnn2c1=O` [Example 317], the IC50 under setting [1] was 25 nM.

Take `CC(C)c1c(-c2cnn(CCNC(=O)OC(C)(C)C)c2)[nH]c2c(C#N)cnn2c1=O` [Example 318]: the IC50 under setting [1] is 21 nM.

As to `CC(C)c1c(-c2cccc(OCCc3ccccc3)c2)[nH]c2c(C#N)cnn2c1=O` [Example 319], the IC50 under setting [1] was 46 nM.

On to `CC(C)c1c(C2=CCNCC2)[nH]c2c(C#N)cnn2c1=O` [Example 320], for which, under setting [1], the IC50 amounted to 20 nM.

For `C=CS(=O)(=O)NCCn1cc(-c2[nH]c3c(C#N)cnn3c(=O)c2C(C)C)cn1` [Example 321], the IC50 under setting [1] was found to be 23 nM.

Turning to `CC(C)c1c(-c2ccc(Nc3ccccc3)cc2)[nH]c2c(C#N)cnn2c1=O` [Example 322], the IC50 under setting [1] was 10 nM.

Take `Cc1n[nH]cc1-c1[nH]c2c(C#N)cnn2c(=O)c1C(C)C` [Example 323]: the IC50 under setting [1] turned out to be 31 nM.

Regarding `CC(C)c1c(-c2ccc(OCc3ccccc3)cc2)[nH]c2c(C#N)cnn2c1=O` [Example 324], the IC50 under setting [1] worked out at 26 nM.

Consider `CC(C)c1c(-c2cc(F)cc(F)c2)[nH]c2c(C#N)cnn2c1=O` [Example 325], for which the IC50 under setting [1] was 19 nM.

With `CC(C)c1c(-c2cc(F)cc(C(F)(F)F)c2)[nH]c2c(C#N)cnn2c1=O` [Example 326], the IC50 under setting [1] is 14 nM.

In the case of `CCS(=O)(=O)c1cccc(-c2[nH]c3c(C#N)cnn3c(=O)c2C(C)C)c1` [Example 327], under setting [1], the IC50 amounted to 48 nM.

Turning to `CC(C)c1c(-c2cccc(OC(F)(F)F)c2)[nH]c2c(C#N)cnn2c1=O` [Example 328], the half-maximal inhibitory concentration (IC50) under setting [1] turned out to be 30 nM.

With `CC(C)c1c(-c2cnn(Cc3cncs3)c2)[nH]c2c(C#N)cnn2c1=O` [Example 329], the concentration for half-maximal inhibition (IC50) under setting [1] is 11 nM.

Consider `Cc1ccc(-c2[nH]c3c(C#N)cnn3c(=O)c2C(C)C)cc1` [Example 330], for which the IC50 under setting [1] was 23 nM.

Consider `CC(C)c1c(-c2ccc(C3CC3)cc2)[nH]c2c(C#N)cnn2c1=O` [Example 331], for which the IC50 under setting [1] is 27 nM.

As for `CCS(=O)(=O)c1ccc(-c2[nH]c3c(C#N)cnn3c(=O)c2C(C)C)cc1` [Example 332], the IC50 under setting [1] was 20 nM.

For `C=Cc1cccc(Cn2cc(-c3[nH]c4c(C#N)cnn4c(=O)c3C(C)C)cn2)n1` [Example 333], the half-inhibitory concentration (IC50) under setting [1] is 12 nM.

On to `CC(C)c1c(-c2ccc(OCc3ccccc3)nc2)[nH]c2c(C#N)cnn2c1=O` [Example 334], for which the IC50 under setting [1] stood at 25 nM.

As to `CC(C)c1c(C2=CCN(C(=O)OC(C)(C)C)C2)[nH]c2c(C#N)cnn2c1=O` [Example 335], the IC50 under setting [1] was found to be 60 nM.

For the compound `CC(C)c1c(-c2cnn(C(CO)c3ccccc3)c2)[nH]c2c(C#N)cnn2c1=O` (stereo not drawn) [Example 336], the IC50 under setting [1] is 32 nM.

For the compound `CC(C)c1c(-c2cnn(C(CC#N)c3ccccc3)c2)[nH]c2c(C#N)cnn2c1=O` (stereo not drawn) [Example 337], the IC50 under setting [1] was found to be 25 nM.

For `CC(C)c1c(-c2ccc(C3CC3)nc2)[nH]c2c(C#N)cnn2c1=O` [Example 338], the half-maximal inhibitory concentration (IC50) under setting [1] was 34 nM.

In the case of `COc1cc(-c2[nH]c3c(C#N)cnn3c(=O)c2C(C)C)ccc1C#N` [Example 339], under setting [1], the IC50 is 33 nM.

In the case of `COc1ccc(-c2[nH]c3c(C#N)cnn3c(=O)c2C(C)C)cc1C(F)(F)F` [Example 340], the 50% inhibitory concentration (IC50) under setting [1] is 31 nM.

On to `CC(C)c1c(-c2ccc(Cl)cc2)[nH]c2c(C#N)cnn2c1=O` [Example 341], for which the IC50 stood at 21 nM.

For the compound `CC(C)c1c(-c2cnn(Cc3ccc(F)c(F)c3)c2)[nH]c2c(C#N)cnn2c1=O` [Example 342], the IC50 under setting [1] was found to be 9 nM.

Regarding `Cc1ccc(-c2[nH]c3c(C#N)cnn3c(=O)c2C(C)C)cc1C(F)(F)F` [Example 343], the 50% inhibitory concentration (IC50) under setting [1] was 36 nM.

As for `CC(C)c1c(-c2ccc(C(=O)N3CCCC3)cc2)[nH]c2c(C#N)cnn2c1=O` [Example 344], under setting [1], the IC50 came to 93 nM.

A word on the IC50: it is the concentration needed to halve the response being measured.
